{"source": "paper PMC3514653", "about": "(Neuromodulation : journal of the International …, 2012)", "key": {"[1]": {"conditions": "dog, in vivo"}, "[2]": {"conditions": "dog, in vivo", "remark": "listed apart in the source"}, "[3]": {"conditions": "dog, in vivo", "remark": "listed apart in the source"}, "Male beagle dogs [4]": {"test_system": "Male beagle dogs", "conditions": "dog, in vivo"}, "Male beagle dogs [5]": {"test_system": "Male beagle dogs", "conditions": "dog, in vivo", "remark": "listed apart in the source"}, "Male beagle dogs [6]": {"test_system": "Male beagle dogs", "conditions": "dog, in vivo", "remark": "listed apart in the source"}, "Male beagle dogs [7]": {"test_system": "Male beagle dogs", "conditions": "dog, in vivo, iv, 0.1 mg/kg"}, "in vivo [8]": {"experiment": "in vivo", "conditions": "male, beagle, dog, 10 ug"}, "in vivo [9]": {"experiment": "in vivo", "conditions": "male, beagle, dog, iv, 0.1 mg/kg"}, "in vivo [10]": {"experiment": "in vivo", "conditions": "beagle, dog"}, "[11]": {"conditions": "in vivo; cited from earlier work"}, "[12]": {"conditions": "in vivo; cited from earlier work", "remark": "listed apart in the source"}}, "note": "Where two headings read alike, the source gives them in different places. Marks after values point to notes of the source that are not given here."}
{"smiles": "CSCC[C@@H]1NC(=O)[C@H](CC(C)C)NC(=O)[C@H](CCCNC(=N)N)NC(=O)[C@H](CO)NC(=O)[C@@H]2CSSC[C@@H]3NC(=O)[C@H](CO)NC(=O)CNC(=O)[C@H]([C@@H](C)O)NC(=O)[C@H](CSSC[C@H](N)C(=O)N[C@@H](CCCCN)C(=O)NCC(=O)N[C@@H](CCCCN)C(=O)NCC(=O)N[C@@H](C)C(=O)N[C@@H](CCCCN)C(=O)N2)NC(=O)[C@H](CSSC[C@@H](C(N)=O)NC(=O)[C@H](CCCCN)NC(=O)CNC(=O)[C@H](CO)NC(=O)[C@H](CCCNC(=N)N)NC3=O)NC(=O)[C@H](CC(=O)O)NC(=O)[C@H](Cc2ccc(O)cc2)NC1=O", "note": "[Ziconotide]", "values": [{"measurement": "CSF : plasma ratio", "setting": "[1]", "value": "approximately 20,000: 1"}, {"measurement": "Time of peak concentration in LCSF", "setting": "[1]", "value": "≤ 3", "unit": "min"}, {"measurement": "Vz/F", "setting": "[1]", "value": "12932 – 33328^b mL"}, {"measurement": "Elimination T1/2 in CSF following IV injection", "setting": "[2]", "value": 1.64, "unit": "h"}, {"measurement": "Elimination T1/2 in plasma following IV injection", "setting": "[2]", "value": 45, "unit": "min"}, {"measurement": "Elimination half life after bolus IV delivery", "setting": "[2]", "value": 1.6, "unit": "h"}, {"measurement": "FCSF (absolute bioavailability in CSF after bolus IV)", "setting": "[2]", "value": 0.013, "unit": "%"}, {"measurement": "LCSF: cisternal ratio at steady state", "setting": "[3]", "value": "~1: 0.02"}, {"measurement": "Plasma concentration relative to that in the cisterna", "setting": "[3]", "value": "approximately 0.1 times"}, {"measurement": "Ratio of LCSF concentrations at infusion doses 1 and 5 µg/hr", "setting": "[3]", "value": "approximately 1: 4"}, {"measurement": "Terminal elimination T1/2 after termination of continuous infusion", "setting": "[3]", "value": 2.47, "unit": "h"}, {"measurement": "Time to peak plasma level", "setting": "[3]", "value": "≤ 8", "unit": "h"}, {"measurement": "Plasma concentration at steady state, 8–48 hr group mean", "setting": "[3]; male, beagle, 5 ug/hr", "value": 1.12, "unit": "ng/mL"}, {"measurement": "Arousal, muscle tone, and coordination", "setting": "Male beagle dogs [4]", "value": "not affected"}, {"measurement": "Diarrhea, dogs affected", "setting": "Male beagle dogs [4]", "value": "3 of the 5"}, {"measurement": "Severity of whole body trembling and ataxia", "setting": "Male beagle dogs [4]", "value": "tendency for this to increase in severity"}, {"measurement": "Whole body trembling, dogs affected", "setting": "Male beagle dogs [4]", "value": "3 of the 5"}, {"measurement": "Persistence of observed effects", "setting": "Male beagle dogs [4]; iv, 0.1 mg/kg", "value": "absent 24 hr post injection"}, {"measurement": "Scleral vasodilation and facial erythema, dogs affected", "setting": "Male beagle dogs [4]; iv, 0.1 mg/kg", "value": "2 of the 5"}, {"measurement": "Vomiting, dogs affected", "setting": "Male beagle dogs [4]; iv, 0.1 mg/kg", "value": "4 of the 5"}, {"measurement": "Body temperature versus baseline", "setting": "Male beagle dogs [5]", "value": "not different from pretreatment baseline measurements"}, {"measurement": "Time for elevated temperatures to return to baseline", "setting": "Male beagle dogs [5]", "value": "24 to 72", "unit": "h"}, {"measurement": "Body temperature versus baseline", "setting": "Male beagle dogs [5]; iv", "value": "not different from pretreatment baseline measurements"}, {"measurement": "Blood pressure and heart rate effect", "setting": "Male beagle dogs [6]", "value": "modest decline in mean, diastolic, and systolic pressures and a mild tachycardia"}, {"measurement": "Effect upon blood pressure", "setting": "Male beagle dogs [6]", "value": "no effect upon blood pressure"}, {"measurement": "Effect upon mean, diastolic, and systolic blood pressures", "setting": "Male beagle dogs [6]", "value": "prominent reduction that persisted for the remainder of the infusion"}, {"measurement": "Duration of fall in blood pressures", "setting": "Male beagle dogs [6]; iv, 0.1 mg/kg", "value": "> 8", "unit": "h"}, {"measurement": "Effect upon heart rate", "setting": "Male beagle dogs [6]; iv, 0.1 mg/kg", "value": "corresponding tachycardia"}, {"measurement": "Fall in mean, diastolic, and systolic pressures", "setting": "Male beagle dogs [6]; iv, 0.1 mg/kg", "value": "approximately 40 mmHg"}, {"measurement": "Respiratory rates", "setting": "Male beagle dogs [7]", "value": "moderate decrease in respiratory rates for approximately 3 hr post injection"}, {"measurement": "CL/F", "setting": "in vivo [8]", "value": 196, "unit": "mL/min"}, {"measurement": "Vd/F", "setting": "in vivo [8]", "value": 17.2, "unit": "L"}, {"measurement": "AUC(0-inf)", "setting": "in vivo [8]; AUC∞", "value": 0.85, "unit": "ng·h/mL"}, {"measurement": "bioavailability", "setting": "in vivo [8]; iv", "value": 53.5, "unit": "%"}, {"measurement": "Cmax", "setting": "in vivo [9]", "value": "~900", "unit": "ng/mL"}, {"measurement": "CL/F", "setting": "in vivo [10]; CL/F (infusion rate divided by steady-state concentration)", "value": 134, "unit": "mL/min"}, {"measurement": "level at 48 h", "setting": "in vivo [10]; male, 5 ug/hr", "value": 13.5, "unit": "ng/mL"}, {"measurement": "Median LCSF half-life", "setting": "[11]", "value": 4.5, "unit": "h"}, {"measurement": "Volume of distribution", "setting": "[11]", "value": 99, "unit": "mL"}, {"measurement": "Diffusion of the peptide in rat brain parenchyma", "setting": "[12]", "value": "less than 1 mm"}]}
